# From publication PMC6792352, “Limited Chemical Structural Diversity Found to Modulate Thyroid Hormone Receptor in the Tox21 Chemical Library” (Environmental Health Perspectives, 2019)
# Like-named read-outs stand apart in the source and are kept apart here.
# What was measured:
# in vitro [1] = assay: in vitro; design: species or system GH3-TRE-Luc (rat pituitary); CellTiter-Fluor viability run in parallel with antagonist mode (1 nM T3), loss of viability; conditions: rat, gh3-tre-luc cells, 1 nM T3 present
# [2] = test system: thyroid hormone receptor (endogenous TRα and TRβ); assay: cells; design: species or system GH3-TRE-Luc (rat pituitary); GH3-TRE-Luc luciferase reporter transactivation, agonist mode, qHTS; RXR ligands can also activate indirectly; conditions: 24 h, read-out: TR_LUC_GH3_Agonist_AC50 (uM)
# [3] = test system: thyroid hormone receptor (endogenous TRα and TRβ); assay: cells; design: species or system GH3-TRE-Luc (rat pituitary); GH3-TRE-Luc luciferase reporter, antagonist mode against 1 nM T3, loss of signal, qHTS; conditions: 24 h, antagonist mode, 1 nM T3, read-out: AC50 (uM) modified / 1000
# estrogen receptor = test system: estrogen receptor; design: method as in Judson et al. 2015; conditions: model values ≥0.1 define actives; ref Judson et al. 2015; cited from earlier work
# [4] = test system: thyroid hormone receptor (TR); assay: Classification of TR actives across characterization assays (TR-Ag / RXR-Ag; TR model binary); design: key to Categorization Code: FP, false positive; conditions: for TR_Model_Binary_Agonist / TR_Model_Binary_Antagonist: candidate chemicals in Tables 2 and 3 define actives; for Categorization Code: TR agonist characterization
# How it was run: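 GH3-TRE qHTS agonist, antagonist and viability modes over 8,305 compounds; 84 candidates rescreened in GH3-TRE-Ag, TRβ- and RXRα-UAS-bla HEK 293T one-hybrid assays, HEK293T viability, and TRα/TRβ coactivator recruitment. Actives classified binary after removing pharmaceuticals.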
# [5] = test system: Tox21 cell viability assays (different cell types); assay: Global cytotoxicity: eighteen Tox21 cell viability assays; assay type: cell-based
# human RXRα = molecular target: T1, human RXRα (Homo sapiens, UniProt P19793); assay: RXRa-bla-Ag mammalian one-hybrid beta-lactamase assay (TOX21_TR_RXR_BLA_Agonist_Followup_ratio, aeid 2253); assay type: cell-based; conditions: for tr-followup-rxr-bla-agonist-1 hitc: hit call from tcpl; for Emax: read-out: EMax (% of Control) tr-followup-rxr-bla-agonist-1; for AC50: read-out: tr-followup-rxr-bla-agonist-1 AC50
# T1 construct: host or cells: GeneBLAzer UAS-bla HEK 293T
# T1 sequence (P19793 227-458 limits assumed): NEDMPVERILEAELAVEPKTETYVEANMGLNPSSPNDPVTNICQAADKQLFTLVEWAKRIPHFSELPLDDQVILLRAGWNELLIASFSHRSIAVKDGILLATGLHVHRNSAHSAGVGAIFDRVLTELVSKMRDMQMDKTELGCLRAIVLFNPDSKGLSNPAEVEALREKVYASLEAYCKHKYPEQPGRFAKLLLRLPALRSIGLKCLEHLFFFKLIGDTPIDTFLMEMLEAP
# [6] = test system: thyroid hormone receptor (endogenous TRα and TRβ); assay: GH3-TRE-Ag-Followup confirmation (TOX21_TR_LUC_GH3_Agonist_Followup, aeid 2226); assay type: cell-based, rat; conditions: for GH3-TRE-Ag-Followup hitc: hit call from tcpl; for AC50: read-out: GH3-TRE-Ag-Followup AC50
# [7] = test system: thyroid hormone receptor (endogenous TRα and TRβ); assay: GH3-TRE-Ag primary qHTS, luciferase reporter, agonist mode (TOX21_TR_LUC_GH3_Agonist, aeid 803); assay type: cell-based, rat; conditions: for GH3-TRE-Ag AC50 hitc: hit call from tcpl
# GH3-TRE-Luc cell line [8] = assay: GH3-TRE-Via cell viability, CellTiter-Fluor (TOX21_TR_LUC_GH3_Antagonist_viability, aeid 805); conditions: for AC50: Rattus norvegicus, read-out: TR_LUC_GH3_Antagonist_viability AC50 (uM)
# [9] = molecular target: T2, human TRβ ligand-binding domain (Homo sapiens, UniProt P10828); assay: TRb-bla agonist mammalian one-hybrid beta-lactamase assay (TOX21_TRB_BLA_Agonist_Followup_ratio, aeid 2236); assay type: cell-based; design: host or cells: GeneBLAzer UAS-bla HEK 293T; conditions: for AC50 / TRb-bla hitc: agonist; for AC50: read-out: TRb-bla AC50; for TRb-bla hitc: hit call from tcpl; for Emax: read-out: EMax (% of Control) trb-bla-agonist-followup-1
# T2 sequence (P10828 217-461 limits assumed): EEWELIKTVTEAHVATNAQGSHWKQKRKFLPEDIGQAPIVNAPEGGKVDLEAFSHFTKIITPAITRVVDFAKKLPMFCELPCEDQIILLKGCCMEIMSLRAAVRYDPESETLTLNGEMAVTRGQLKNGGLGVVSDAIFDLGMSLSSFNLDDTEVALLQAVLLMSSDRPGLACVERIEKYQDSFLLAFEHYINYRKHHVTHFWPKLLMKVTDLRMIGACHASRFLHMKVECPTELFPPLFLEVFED
# [10] = molecular target: T2, human TRβ ligand-binding domain; assay: TRb-coa LanthaScreen TR-FRET coactivator (SRC-2 peptide) recruitment, agonist (TOX21_TRB_COA_Agonist_Followup_ratio, aeid 2244); assay type: biochemical; design: host or cells: GeneBLAzer UAS-bla HEK 293T; conditions: for AC50 / TRb-coa hitc: agonist; for AC50: read-out: TRb-coa AC50; for TRb-coa hitc: hit call from tcpl; for Emax: read-out: EMax (% of Control) trb-coa-agonist-followup-1
# [11] = molecular target: T3, TRα ligand-binding domain (Homo sapiens, UniProt P10827); assay: TRa-coa LanthaScreen TR-FRET coactivator (SRC-2 peptide) recruitment, agonist (TOX21_TRA_COA_Agonist_Followup_ratio, aeid 2230); assay type: biochemical; conditions: for AC50 / TRa-coa hitc: agonist; for AC50: read-out: TRa-coa AC50; for TRa-coa hitc: hit call from tcpl; for Emax: read-out: EMax (% of Control) tra-coa-agonist-followup-1
# T3 construct: the receptor LBDs expressed as glutathione S-transferase (GST) fusion proteins; purchased
# T3 sequence (P10827 163-410 isoform P10827-2 limits assumed, other chains not shown): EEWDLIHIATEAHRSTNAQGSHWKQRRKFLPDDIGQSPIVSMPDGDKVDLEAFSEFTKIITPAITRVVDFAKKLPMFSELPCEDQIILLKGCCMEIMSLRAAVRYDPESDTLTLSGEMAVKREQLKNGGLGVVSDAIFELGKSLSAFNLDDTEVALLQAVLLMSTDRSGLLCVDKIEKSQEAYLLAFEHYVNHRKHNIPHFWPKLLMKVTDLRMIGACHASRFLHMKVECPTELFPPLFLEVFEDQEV
# GH3-TRE-Luc cell line [12] = conditions: rat, 24 h
# [13] = test system: thyroid hormone receptor (endogenous TRα and TRβ); assay: GH3-TRE-Antag-Followup confirmation (TOX21_TR_LUC_GH3_Antagonist_Followup, aeid 2227); assay type: cell-based, rat; conditions: Table S3, aeid 2227
# in vitro [14] = conditions: rat, gh3-tre-luc cells, AC50 (uM) modified / 1000
# [15] = molecular target: T2, human TRβ ligand-binding domain; assay: TRb-bla antagonist mammalian one-hybrid beta-lactamase assay (TOX21_TRB_BLA_Antagonist_Followup, aeid 2238-2240); assay type: cell-based; conditions: for Emax: read-out: resp_max (maximum response value)
# [16] = Global cytotoxicity: eighteen Tox21 cell viability assays; assay type: cell-based; conditions: median over 18 Tox21 cell viability assays (Judson et al. 2016, invitrodb_v2); read-out: Global cytotoxicity AC50 median
# in vitro [17] = conditions: rat
compound,measurement,setting,value
CCOP(=O)(OCC)Oc1nc(Cl)c(Cl)cc1Cl [Chlorpyrifos oxon],CC50 at 24 h,"in vitro [1]; AC50 (uM) modified / 1000, Tox21_110001=Tox21_301063, viability",60.1 µM
same,AC50,[2],> 90 µM
CCOP(=O)(CN(CCO)CCO)OCC [Diethyl((diethanolamino)methyl)phosphonate],CC50 at 24 h,"in vitro [1]; AC50 (uM) modified / 1000, Tox21_110001=Tox21_301894, viability",> 90 µM
same,AC50,[3]; Tox21_110001=Tox21_301894,> 90 µM
same,AC50,[2],> 90 µM
[CH3][Sn]([CH3])([Cl])[Cl] [Dimethyltin dichloride],CC50 at 24 h,"in vitro [1]; AC50 (uM) modified / 1000, Tox21_110001=Tox21_201249, viability",79.3 µM
"C=C1CCC2CC1C2(C)C (single isomer, unassigned; (-)) [(-)-beta-Pinene]",ER_Model_AUC_Agonist,estrogen receptor,0
same,ER_Model_AUC_Antagonist,estrogen receptor,0
same,TR_Model_Binary_Agonist,[4],0
same,TR_Model_Binary_Antagonist,[4],0
CNC(=O)ON=C(CSC)C(C)(C)C [Thiofanox],GLOBAL CYTOTOXICITY cytotox.number_Active,[5]; # active of 18 total Tox21 viability assays,0
same,GLOBAL CYTOTOXICITY cytotox.median,[5]; median over Tox21 viability assays,>92
same,tr-followup-rxr-bla-agonist-1 hitc,human RXRα,0
same,Emax,human RXRα,3%
same,AC50,human RXRα,> 92 µM
same,EMax (% of Control) gh3-tre-agonist-followup-1_agonist,[6],9.5 % of Control
same,GH3-TRE-Ag-Followup hitc,[6],0
same,AC50,[6],> 92 µM
same,EMax (% of Control) gh3-tre-agonist,[7],22.7 % of Control
same,GH3-TRE-Ag AC50 hitc,[7],1
same,AC50,[2],21 µM
same,AC50,GH3-TRE-Luc cell line [8],> 92 µM
same,TR_LUC_GH3_Antagonist_viability hitc,GH3-TRE-Luc cell line [8]; hit call from tcpl,0
same,AC50,[9],> 92 µM
same,TRb-bla hitc,[9],0
same,Emax,[9],31.7%
same,AC50,[10],> 92 µM
same,TRb-coa hitc,[10],0
same,Emax,[10],-0.165%
same,Categorization Code,[4],FP
same,AC50,[11],> 92 µM
same,TRa-coa hitc,[11],0
same,Emax,[11],-0.2%
CCS(=O)(=O)CCSP(=O)(OC)OC [Demeton-S-methylsulphon],CC50 at 24 h,"in vitro [1]; AC50 (uM) modified / 1000, Tox21_110001=Tox21_301575, viability",> 90 µM
same,AC50,[3]; Tox21_110001=Tox21_301575,> 90 µM
same,AC50,[2],> 90 µM
CCOP(=S)(OCC)SCSc1cc(Cl)ccc1Cl [Phenkapton],CC50 at 24 h,"in vitro [1]; AC50 (uM) modified / 1000, Tox21_110001=Tox21_301741, viability",> 90 µM
same,AC50,[3]; Tox21_110001=Tox21_301741,> 90 µM
same,AC50,[2],> 90 µM
[CH3][Sn]([Cl])([Cl])[Cl] [Trichloromethylstannane],CC50 at 24 h,"in vitro [1]; AC50 (uM) modified / 1000, Tox21_110001=Tox21_202322, viability",> 90 µM
(-)-alpha-Pinene,ER_Model_AUC_Agonist,estrogen receptor,0
same,ER_Model_AUC_Antagonist,estrogen receptor,0
same,TR_Model_Binary_Agonist,[4],0
same,TR_Model_Binary_Antagonist,[4],0
"C1=CCC=C1 [1,3-Cyclopentadiene]",CC50 at 24 h,"in vitro [1]; AC50 (uM) modified / 1000, Tox21_110001=Tox21_302134, viability",> 90 µM
same,AC50,[3]; Tox21_110001=Tox21_302134,> 90 µM
same,AC50,[2],> 90 µM
c1csc(-c2ccc(-c3cccs3)s2)c1 [alpha-Terthiophene],GLOBAL CYTOTOXICITY cytotox.median,[5],>92
same,GLOBAL CYTOTOXICITY cytotox.number_Active,[5],0
same,tr-followup-rxr-bla-agonist-1 hitc,human RXRα,1
same,Emax,human RXRα,65.3%
same,AC50,human RXRα,0.728 µM
same,EMax (% of Control) gh3-tre-agonist-followup-1_agonist,[6],7.5 % of Control
same,GH3-TRE-Ag-Followup hitc,[6],0
same,AC50,[6],> 92 µM
same,EMax (% of Control) gh3-tre-agonist,[7],20.8 % of Control
same,GH3-TRE-Ag AC50 hitc,[7],1
same,AC50,[2],80.3 µM
same,AC50,GH3-TRE-Luc cell line [8],> 92 µM
same,AC50,[9],> 92 µM
same,TRb-bla hitc,[9],0
same,Emax,[9],25.8%
same,AC50,[10],> 92 µM
same,TRb-coa hitc,[10],0
same,Emax,[10],-0.0945%
same,TR_LUC_GH3_Antagonist_viability hitc,GH3-TRE-Luc cell line [12],0
same,Categorization Code,[4],FP
same,AC50,[11],> 92 µM
same,TRa-coa hitc,[11],0
same,Emax,[11],-0.547%
C[C@]12CC[C@@H]3c4ccc(OC(=O)N(CCCl)CCCl)cc4CC[C@H]3[C@@H]1CC[C@@H]2OP(=O)(O)O [Estramustine phosphate sodium],AC50,[3]; Tox21_110001=Tox21_113375,> 50 µM
O=C(O)c1cccnc1Nc1cccc(C(F)(F)F)c1 [Niflumic acid],flag (text output for the level 6 method),[13],Borderline inactive
same,hitc,[13],0
same,modl_tp (top asymptote for the winning model),[13],11.5978 percent_activity
same,resp_max (maximum response value),[13],41.1677 percent_activity
same,CC50 at 24 h,in vitro [14],> 50 µM
same,hitc,"[15]; Table S3, aeid 2238, ch1",0
same,Emax,"[15]; Table S3, aeid 2238, ch1",36.4%
same,hitc,"[15]; Table S3, aeid 2239, ch2",0
same,Emax,"[15]; Table S3, aeid 2239, ch2",24.1%
same,hitc,"[15]; Table S3, aeid 2240, ratio",0
same,Emax,"[15]; Table S3, aeid 2240, ratio",46.2%
ClCc1ccccc1 [Benzyl chloride],CC50 at 24 h,"in vitro [1]; AC50 (uM) modified / 1000, Tox21_110001=Tox21_200266, viability",> 90 µM
same,AC50,[3]; Tox21_110001=Tox21_200266,> 90 µM
same,AC50,[2],> 90 µM
CCOP(=S)(OCC)SCCl [Chlormephos],CC50 at 24 h,"in vitro [1]; AC50 (uM) modified / 1000, Tox21_110001=Tox21_300825, viability",> 90 µM
same,AC50,[3]; Tox21_110001=Tox21_300825,> 90 µM
same,AC50,[2],> 90 µM
"N[C@@H](Cc1ccc(Oc2cc(I)c(O)c(I)c2)c(I)c1)C(=O)O [3,3ʹ,5ʹ-Triiodo-L-thyronine]",AC50,[16],> 92 µM
same,AC50,"[6]; confirmation, agonist mode",0.537 µM
same,CC50 at 24 h,in vitro [14],> 50 µM
same,AC50,in vitro [17],> 92 µM
same,AC50,[2],0.218 µM
same,Classification,"[4]; TR-Ag = TR agonist, RXR-Ag = RXR agonist",TR-Ag
CCOP(=S)(Oc1ccc([N+](=O)[O-])cc1)c1ccccc1 (stereo not shown) [EPN],CC50 at 24 h,"in vitro [1]; AC50 (uM) modified / 1000, Tox21_110001=Tox21_300424, viability",> 90 µM
same,AC50,[3]; Tox21_110001=Tox21_300424,> 90 µM
same,AC50,[2],> 90 µM
